In US20170057838A1, “WATER CAPPING OF TAILINGS” (priority 2015, published 2017):

System: One-year old yellow perch
Experiment: yellow perch gill structure after three weeks exposure
Format: in vivo
Conditions: added to extract solution
Description: In an attempt to establish a causative link with chemical constituents of test pond water caps, laboratory tests examined the effect of exposure to a naphthenic acid extract from fresh WIP MFT release water on perch gill structure. […] Sulphate and naphthenic acids comprise two of the main constituents of concern in capping water and may act in concert to induce gill damage. The resulting reduced gill surface area likely led to restricted transport of both naphthenic acids and oxygen into the perch body. […] The gill aneurysms presumably occur because the outer layer of the gill has been damaged.

With `O=S(=O)([O-])[O-].[Na+].[Na+]` [sodium sulphate] as the compound, how does the “effect of addition to the naphthenic acid extract solution on gill toxicity” value read?
The value was “exacerbated the expression of toxicity”.
